The results in this text go back to patent publication US7812183B2, “Benzopyran derivatives as potassium channel openers” (Janssen Pharmaceutica NV, priority 2005, dated 2010).

Bounds are passed on as bounds.

The target of this test is T1, KATP channels (Homo sapiens, UniProt O60706+Q14654).
T1 construct: TE671 human medulloblastoma cells were obtained from ATCC; host or cells: TE671 human medulloblastoma cells
T1 sequence (O60706 1-1549 isoform O60706-2): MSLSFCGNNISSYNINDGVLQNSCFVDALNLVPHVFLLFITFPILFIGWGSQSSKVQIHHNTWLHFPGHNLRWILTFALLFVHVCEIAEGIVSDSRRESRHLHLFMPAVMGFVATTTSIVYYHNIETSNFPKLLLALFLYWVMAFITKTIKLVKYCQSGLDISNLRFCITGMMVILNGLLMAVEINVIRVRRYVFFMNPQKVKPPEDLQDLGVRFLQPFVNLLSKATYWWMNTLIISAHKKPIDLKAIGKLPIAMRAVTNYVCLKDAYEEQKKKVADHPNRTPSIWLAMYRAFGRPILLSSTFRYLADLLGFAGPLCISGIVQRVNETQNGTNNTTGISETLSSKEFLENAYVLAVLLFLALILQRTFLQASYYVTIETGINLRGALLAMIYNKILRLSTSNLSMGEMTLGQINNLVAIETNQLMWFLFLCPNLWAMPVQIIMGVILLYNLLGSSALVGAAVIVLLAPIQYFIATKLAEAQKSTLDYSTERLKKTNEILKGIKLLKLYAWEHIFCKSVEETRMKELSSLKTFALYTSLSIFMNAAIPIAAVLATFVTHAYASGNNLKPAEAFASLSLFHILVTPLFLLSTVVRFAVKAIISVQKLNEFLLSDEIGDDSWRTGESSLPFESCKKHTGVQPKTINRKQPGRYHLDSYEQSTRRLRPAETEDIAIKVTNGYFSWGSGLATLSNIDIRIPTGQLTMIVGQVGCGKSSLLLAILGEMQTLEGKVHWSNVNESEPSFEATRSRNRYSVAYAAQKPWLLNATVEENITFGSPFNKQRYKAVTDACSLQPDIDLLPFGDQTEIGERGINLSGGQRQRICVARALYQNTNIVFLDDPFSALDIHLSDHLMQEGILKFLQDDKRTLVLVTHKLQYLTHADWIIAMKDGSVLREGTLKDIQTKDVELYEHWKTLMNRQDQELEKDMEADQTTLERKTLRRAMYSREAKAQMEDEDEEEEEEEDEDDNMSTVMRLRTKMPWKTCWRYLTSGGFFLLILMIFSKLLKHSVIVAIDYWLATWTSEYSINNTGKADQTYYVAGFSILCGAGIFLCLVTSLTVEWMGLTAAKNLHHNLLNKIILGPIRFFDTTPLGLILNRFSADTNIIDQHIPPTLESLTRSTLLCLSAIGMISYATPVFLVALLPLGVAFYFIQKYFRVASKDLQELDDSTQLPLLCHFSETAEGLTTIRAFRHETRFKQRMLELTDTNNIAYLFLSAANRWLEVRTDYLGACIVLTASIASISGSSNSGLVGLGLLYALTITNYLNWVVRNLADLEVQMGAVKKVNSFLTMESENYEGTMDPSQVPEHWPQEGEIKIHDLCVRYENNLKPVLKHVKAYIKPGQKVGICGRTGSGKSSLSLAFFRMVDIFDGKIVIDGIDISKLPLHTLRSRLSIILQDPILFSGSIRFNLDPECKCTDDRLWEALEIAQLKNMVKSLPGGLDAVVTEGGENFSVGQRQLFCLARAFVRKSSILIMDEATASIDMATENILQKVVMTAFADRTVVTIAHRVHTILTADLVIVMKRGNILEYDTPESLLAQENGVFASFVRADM
T1 sequence (Q14654 whole entry): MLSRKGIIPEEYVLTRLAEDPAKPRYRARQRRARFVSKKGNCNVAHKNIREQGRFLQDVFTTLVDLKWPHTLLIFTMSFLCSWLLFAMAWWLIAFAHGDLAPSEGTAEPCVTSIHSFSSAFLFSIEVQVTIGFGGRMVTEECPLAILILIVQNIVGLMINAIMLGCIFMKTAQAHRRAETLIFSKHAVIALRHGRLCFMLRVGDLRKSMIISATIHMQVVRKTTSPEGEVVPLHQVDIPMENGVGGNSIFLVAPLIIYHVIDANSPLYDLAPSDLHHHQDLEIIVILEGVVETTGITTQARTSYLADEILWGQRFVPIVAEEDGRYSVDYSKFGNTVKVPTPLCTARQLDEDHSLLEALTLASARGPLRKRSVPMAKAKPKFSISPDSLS
Description: Potassium Channel Assay (FLIPR membrane potential, TE671 cells). The class given is cell-based. The following applies: TE671 human medulloblastoma cells, Membrane Potential Assay Dye, room temperature, hyperpolarization from KATP channel opening. The protocol: TE671 human medulloblastoma cells were obtained from ATCC and grown in Dulbecco's modified Eagle's medium (DMEM) supplemented with 10% fetal bovine serum, 100 U/ml penicillin and 100 U/ml streptomycine.
The day before testing, the cells were plated in black 96-well plates at 50K/well. On the day of testing, the growth media was removed, then 100 μl of FLIPR buffer (20 mM HEPES, 120 mM NaCl, 2 mM KCl, 2 mM CaCl2, 1 mM MgCl2, 5 mM Glucose) and 100 μl of Membrane Potential Assay Dye (Molecular Devices) dissolved in FLIPR buffer were added to each well. The cells were incubated at room temperature for 15 to 30 min.
The effect of test compounds on KATP channels were evaluated on a fluorometric imaging plate reader (FLIPR, Molecular Devices) at room temperature. After a baseline period, 50 μl of 5× stock solution of test compound prepared in FLIPR buffer was added and fluorescent change was monitored for 3 minutes. After this reading, glyburide, a KATP channel blocker, was added to a final concentration of 5 μM to check the specificity of the test compound as a KATP channel openers. Hyperpolarization resulting from KATP channel opening was observed as a decrease in fluorescent intensity.
Representative compounds of the present invention were tested according to the procedure described above, with results as listed in Table 7, below.
By EC50 is commonly meant the midpoint of the concentration-response curve. With `CC1(C)Oc2ccc(C#N)cc2[C@@H](Oc2nsc3cc([N+](=O)[O-])ccc23)[C@@H]1O` [Compound 41, 3S-Hydroxy-2,2-dimethyl-4R-(6-nitro-benzo[d]isothiazol-3-yloxy)-chroman-6-carbonitrile], the EC50 was found to be 4.1 µM.

`CCN(CC)C(=O)c1ccc2c(c1)[C@@H](Nc1noc3ccc(Cl)cc13)[C@H](O)C(C)(C)O2` [Compound 89, 4R-(5-Chloro-benzo[d]isoxazol-3-ylamino)-3S-hydroxy-2,2-dimethyl-chroman-6-carboxylic acid diethylamide] registered an EC50 of more than 30 µM.

`CC1(C)Oc2ccc(C#N)cc2[C@@H](S(=O)(=O)c2nc3cc(Cl)c(F)cc3[nH]2)[C@@H]1O` [Compound 72, 4R-(5-Chloro-6-fluoro-1H-benzoimidazole-2-sulfonyl)-3S-hydroxy-2,2-dimethyl-chroman-6-carbonitrile] showed a concentration for a half-maximal effect (EC50) of 20.2 µM.

`CC1(C)Oc2ccc(C#N)cc2[C@@H](N2CCN(c3ccc(Cl)cc3)CC2)[C@@H]1O` (racemic) [Compound 50, 4-[4-(4-Chloro-phenyl)-piperazin-1-yl]-3-hydroxy-2,2-dimethyl-chroman-6-carbonitrile] yielded an EC50 of more than 30 µM.

On to `CC1(C)Oc2ccc(S(=O)(=O)c3ccccc3)cc2[C@@H](Oc2noc3cc(Cl)ccc23)[C@@H]1O` [Compound 77, 6-Benzenesulfonyl-4R-(6-chloro-benzo[d]isoxazol-3-yloxy)-2,2-dimethyl-chroman-3S-ol], for which the EC50 is more than 30 µM.

`CC1(C)Oc2ccc(C#N)cc2[C@@H](Oc2ncnc3ccccc23)[C@@H]1O` [Compound 40, (3S,4R)-3-Hydroxy-2,2-dimethyl-4-(quinazolin-4-yloxy)-chroman-6-carbonitrile] displayed an EC50 of 1.94 µM.

Regarding `CC1(C)C=C(Oc2ccc(-c3ccccc3)nn2)c2cc(C#N)ccc2O1` [Compound 53, 2,2-Dimethyl-4-(6-phenyl-pyridazin-3-yloxy)-2H-chromene-6-carbonitrile], the EC50 was 9.91 µM.

Compound `CC1(C)Oc2ccc(C#N)cc2[C@@H](Sc2nc3cc(Cl)ccc3[nH]2)C1O` (stereo in doubt) [Compound 29, (3S,4R)-4-(5-Chloro-1H-benzoimidazol-2-ylsulfanyl)-3-hydroxy-2,2-dimethyl-chroman-6-carbonitrile] displayed an EC50 of 6.18 µM.

`CC1(C)Oc2ccc(S(=O)(=O)c3ccc(Cl)cc3)cc2[C@@H](Oc2noc3cc(Cl)ccc23)[C@@H]1O` [Compound 101, 6-(4-Chloro-benzenesulfonyl)-4R-(6-chloro-benzo[d]isoxazol-3-yloxy)-2,2-dimethyl-chroman-3S-ol] had an EC50 of more than 30 µM.

The compound `CC1(C)Oc2ccc(C#N)cc2[C@@H](Nc2nc(=O)c3cc(Cl)ccc3[nH]2)[C@@H]1O` (racemic) [Compound 7, 4-(6-Chloro-4-oxo-1,4-dihydro-quinazolin-2-ylamino)-3-hydroxy-2,2-dimethyl-chroman-6-carbonitrile] showed a concentration giving a half-maximal response (EC50) of 2.29 µM.

The compound `CC1(C)Oc2ccc(C#N)cc2[C@@H](n2nccc2-c2ccc(Cl)cc2)[C@@H]1O` [Compound 10, 4R-[5-(4-Chloro-phenyl)-pyrazol-1-yl]-3S-hydroxy-2,2-dimethyl-chroman-6-carbonitrile] displayed an EC50 of 1.5 µM.

The compound `CC1(C)Oc2ccc(S(=O)(=O)c3cccc(F)c3)cc2[C@@H](n2oc3cc(Cl)ccc3c2=O)[C@@H]1O` [Compound 100, 4R-6-Chloro-2-[6-(3-fluoro-benzenesulfonyl)-3S-hydroxy-2,2-dimethyl-chroman-4-yl]-R-benzo[d]isoxazol-3-one] yielded a 50% effective concentration (EC50) of 1.95 µM.

Compound `CC1(C)Oc2ccc(S(=O)(=O)c3ccccc3)cc2[C@@H](n2oc3ccc(Cl)cc3c2=O)[C@@H]1O` [Compound 76, 2-(6-Benzenesulfonyl-3S-hydroxy-2,2-dimethyl-chroman-4-yl)-5-chloro-4R-benzo[d]isoxazol-3-one] gave an EC50 of 0.4 µM.

The compound `CC1(C)Oc2ccc(C#N)cc2[C@@H](S(=O)(=O)c2noc3cc(Cl)ccc23)[C@@H]1O` (racemic) [Compound 19, 4-(6-Chloro-benzo[d]isoxazole-3-sulfonyl)-3-hydroxy-2,2-dimethyl-chroman-6-carbonitrile] displayed an EC50 of 15.4 µM.

On to `CC1(C)Oc2ccncc2[C@@H](Nc2nc3cc(Cl)ccc3s2)[C@@H]1O` (racemic) [Compound 106, 4-(5-Chloro-benzothiazol-2-ylamino)-2,2-dimethyl-3,4-dihydro-2H-pyrano[3,2-c]pyridin-3-ol], for which a half-maximal effect (EC50) was put at 19.5 µM.

For `CC1(C)Oc2ccc(Cl)cc2[C@@H](N2C(=O)CCN2c2ccccc2)[C@@H]1O` (racemic) [Compound 13, 2-(6-Chloro-3-hydroxy-2,2-dimethyl-chroman-4-yl)-1-phenyl-pyrazolidin-3-one], the EC50 amounted to 3.16 µM.

As to `CC1(C)Oc2ccc(C#N)cc2[C@@H](n2ccnc2-c2ccc(Cl)cc2)[C@@H]1O` (racemic) [Compound 12, 4-[2-(4-Chloro-phenyl)-imidazol-1-yl]-3-hydroxy-2,2-dimethyl-chroman-6-carbonitrile], a half-maximal response (EC50) required 5.7 µM.

In turn, `CC1(C)Oc2ccncc2[C@@H](Oc2ccn(-c3ccc(Cl)cc3)n2)[C@@H]1O` (racemic) [Compound 109, 4-[1-(4-Chloro-phenyl)-1H-pyrazol-3-yloxy]-2,2-dimethyl-3,4-dihydro-2H-pyrano[3,2-c]pyridin-3-ol] gave a concentration giving a half-maximal response (EC50) of 26.4 µM.

The compound `CC1(C)Oc2ccc(S(=O)(=O)c3ccccc3)cc2[C@@H](Nc2noc3ccc(Cl)cc23)[C@@H]1O` [Compound 74, 6-Benzenesulfonyl-4R-(5-chloro-benzo[d]isoxazol-3-ylamino)-2,2-dimethyl-chroman-3S-ol] registered a concentration giving a half-maximal response (EC50) of 1.37 µM.

The compound `N#Cc1ccc2c(c1)[C@@H](NC(=O)c1cccc(Cl)c1)[C@H](OC(=O)c1cccc(Cl)c1)C1(CCS(=O)(=O)CC1)O2` [Compound 202, (3S,4R)-3-Chloro-benzoic acid 4-(3-chloro-benzoylamino)-6-cyano-2,2-(tetrahydro-4-sulfonylpyranyl)-chroman-3-yl ester] yielded an EC50 of more than 30 µM.

Compound `CC1(C)Oc2ccc(C(=O)c3ccccc3)cc2[C@@H](Oc2noc3cc(Cl)ccc23)[C@@H]1O` [Compound 95] returned an EC50 of 20.7 µM.

Turning to `CC1(C)Oc2ccc(C#N)cc2[C@@H](Nc2nc3cc(F)ccc3s2)[C@@H]1O` (racemic) [Compound 5, 4-(5-Fluoro-benzothiazol-2-ylamino)-3-hydroxy-2,2-dimethyl-chroman-6-carbonitrile], the EC50 was determined as 8.44 µM.

Turning to `COc1ccc(S(=O)(=O)c2ccc3c(c2)[C@@H](Oc2noc4cc(Cl)ccc24)[C@H](O)C(C)(C)O3)cc1` [Compound 97, 4R-(6-Chloro-benzo[d]isoxazol-3-yloxy)-6-(4-methoxy-benzenesulfonyl)-2,2-dimethyl-chroman-3S-ol], the EC50 is more than 30 µM.

For `CC1(C)Oc2ccc(C#N)cc2[C@@H](n2c(=O)ccn2-c2ccccc2)[C@@H]1O` (racemic) [Compound 62, 3-Hydroxy-2,2-dimethyl-4-(5-oxo-2-phenyl-2,5-dihydro-pyrazol-1-yl)-chroman-6-carbonitrile], the EC50 worked out at 13.5 µM.

`CC1(C)Oc2ccc(C#N)cc2[C@@H](Oc2nsc3ccccc23)[C@@H]1O` (racemic) [Compound 20, 4-(Benzo[d]isothiazol-3-yloxy)-3-hydroxy-2,2-dimethyl-chroman-6-carbonitrile] displayed an EC50 of 16.1 µM.

`CC1(C)Oc2ccc(S(=O)(=O)c3ccccc3)cc2[C@@H](Nc2noc3cc(Cl)ccc23)[C@@H]1O` [Compound 73, (3S,4R)-6-Benzenesulfonyl-4R-(6-chloro-benzo[d]isoxazol-3-ylamino)-2,2-dimethyl-chroman-3S-ol] yielded an EC50 of 5.19 µM.

As for `CCN(CC)S(=O)(=O)c1ccc2c(c1)[C@@H](n1oc3ccc(Cl)cc3c1=O)[C@H](O)C(C)(C)O2` [Compound 86, 4R-(5-Chloro-3-oxo-3H-benzo[d]isoxazol-2-yl)-3S-hydroxy-2,2-dimethyl-chroman-6-sulfonic acid diethylamide], the half-maximal effective concentration (EC50) was more than 30 µM.

`CC1(C)C=C(Oc2nsc3cc([N+](=O)[O-])ccc23)c2cc(C#N)ccc2O1` [Compound 69, (3S,4R)-2,2-Dimethyl-R-(6-nitro-benzo[d]isothiazol-3-yloxy)-2H-chromene-6-carbonitrile] registered a concentration giving a half-maximal response (EC50) of more than 30 µM.

Turning to `CC1(C)Oc2ccc(C#N)cc2[C@@H](SC2=NCCc3ccccc32)[C@@H]1O` [Compound 42, 4R-(3,4-Dihydro-isoquinolin-1-ylsulfanyl)-3S-hydroxy-2,2-dimethyl-chroman-6-carbonitrile], the EC50 was more than 30 µM.

The compound `CC1(C)C=C(n2ccnc2-c2ccccc2)c2cc(C#N)ccc2O1` [Compound 61, 2,2-Dimethyl-4-(2-phenyl-imidazol-1-yl)-2H-chromene-6-carbonitrile] showed an EC50 of more than 30 µM.

Consider `CC1(C)Oc2ccc(S(=O)(=O)c3cccc(F)c3)cc2[C@@H](Oc2noc3cc(Cl)ccc23)[C@@H]1O` [Compound 99, 4R-(6-Chloro-benzo[d]isoxazol-3-yloxy)-6-(3-fluoro-benzenesulfonyl)-2,2-dimethyl-chroman-3S-ol], for which the EC50 stood at 21.5 µM.

Consider `CC1(C)Oc2ccc(Cl)cc2C(OC(=O)c2cccc(Cl)c2)C1O` (racemic) [Compound 3], for which the half-maximal effective concentration (EC50) amounted to 26.3 µM.
